Among the data in US6869964B2, “Heterocyclicsulfonamide hepatitis C virus inhibitors” (Bristol-Myers Squibb Company, priority 2002, dated 2005) are IC50 and EC50 values, retold here.

Structures are written as SMILES. pEC50, pIC50: −log10 of the molar value. Bounds are passed on as bounds.

For experiment [1], the target named is T1, HCV NS3/4A protease complex (BMS strain) (Hepatitis C virus genotype 1a, UniProt P27958, C1454S).
T1 construct: HCV NS3/4A protease complex (amino acids 1027 to 1711); inferred from pET21b vector and Ni-NTA purification; made in house; host or cells: Escherichia coli BL21 (DE3), pET21b
The experiment can be described thus: Recombinant HCV NS3/4A protease complex FRET peptide assay, BMS strain. Type of experiment: biochemical, HCV genotype 1a. The conditions noted are these: NS3/4A BMS Strain, activity range; read-out: IC50 a, b, c (Activity Table). An excerpt: Recombinant HCV NS3/4A Protease Complex FRET Peptide Assay
The purpose of this in vitro assay was to measure the inhibition of HCV NS3 protease complexes, derived from the BMS, H77C or J4l6S strains, as described below, by compounds of the present invention. This assay provides an indication of how effective compounds of the present invention would be in inhibiting HCV proteolytic activity.
Serum from an HCV-infected patient was obtained from Dr. T. Wright, San Francisco Hospital. An engineered full-length cDNA template of the HCV genome (BMS strain) was constructed from DNA fragments obtained by reverse transcription-PCR (RT-PCR) of serum RNA and using primers selected on the basis of homology between other genotype la strains. From the determination of the entire genome sequence, a genotype la was assigned to the HCV isolate according to the classification of Simmonds et al. (See P Simmonds, K A Rose, S Graham, S W Chan, F McOmish, B C Dow, E A Follett, P L Yap and H Marsden, J. Clin. Microbiol., 31(6), 1493-1503 (1993)). […] The infectious clones, H77C (1a genotype) and J4 L6S (1b genotype) were obtained from R. Purcell (NIH) and the sequences are published in Genbank (AAB67036, see Yanagi, M., Purcell, R. H., Emerson, S. U. and Bukh, J. Proc. Natl. Acad. Sci. U.S.A. 94(16),8738-8743 (1997); AF054247, see Yanagi, M., St Claire, M., Shapiro, M., Emerson, S. U., Purcell, R. H. and Bukh, J, Virology 244 (1), 161-172. (1998)).
The BMS, H77C and J4 L6S strains were used for production of recombinant NS3/4A protease complexes. DNA encoding the recombinant HCV NS3/4A protease complex (amino acids 1027 to 1711) for these strains were manipulated as described by P. Gallinari et al. (see Gallinari P, Paolini C, Brennan D, Nardi C, Steinkuhler C, De Francesco R. Biochemistry. 38(17):5620-32, (1999)). Briefly, a three-lysine solubilizing tail was added at the 3′-end of the NS4A coding region. The cysteine in the P1 position of the NS4A-NS4B cleavage site (amino acid 1711) was changed to a glycine to avoid the proteolytic cleavage of the lysine tag. Furthermore, a cysteine to serine mutation was introduced by PCR at amino acid position 1454 to prevent the autolytic cleavage in the NS3 helicase domain. The variant DNA fragment was cloned in the pET21b bacterial expression vector (Novagen) and the NS3/4A complex was expressed in Escherichia coli strain BL21 (DE3) (Invitrogen) following the protocol described by P. Gallinari et al. (see Gallinari P, Brennan D, Nardi C, Brunetti M, Tomei L, Steinkuhler C, De Francesco R., J Virol. 72(8):6758-69 (1998)) with modifications. Briefly, NS3/4A expression was induced with 0.5 mM Isopropyl β-D-1-thiogalactopyranoside (IPTG) for 22 hr at 20° C. A typical fermentation (10 L) yielded approximately 80 g of wet cell paste. The cells were resuspended in lysis buffer (10 mL/g) consisting of 25 mM N-(2-Hydroxyethyl)Piperazine-N′-(2-Ethane Sulfonic acid) (HEPES), pH7.5, 20% glycerol, 500 mM Sodium Chloride (NaCl), 0.5% Triton-X100, 1 ug/ml lysozyme, 5 mM Magnesium Chloride (MgCl2), 1 ug/ml DnaseI, 5 mM β-Mercaptoethanol (βME), Protease inhibitor—Ethylenediamine Tetraacetic acid (EDTA) free (Roche), homogenized and incubated for 20 mins at 4° C. The homogenate was sonicated and clarified by ultra-centrifugation at 235000 g for lhr at 4° C. Imidazole was added to the supernatant to a final concentration of 15 mM and the pH adjusted to 8.0. The crude protein extract was loaded on a Nickel—Nitrilotriacetic acid (Ni—NTA) column pre-equilibrated with buffer B (25 mM HEPES, pH8.0, 20% glycerol, 500 mM NaCl, 0.5% Triton-X100, 15 mM imidazole, 5 mM βME). The sample was loaded at a flow rate of 1 mL/min. The column was washed with 15 column volumes of buffer C (same as buffer B except with 0.2% Triton-X100). The protein was eluted with 5 column volumes of buffer D (same as buffer C except with 200 mM Imidazole). […]

The test system of experiment [2] is HCV replicon in Huh7 cells. The experiment can be described thus: HCV replicon cell-based assay (FRET). The conditions noted are these: Hepatitis C virus, Huh-7; replicon, activity range; read-out: EC50 a, b, c (Activity Table). Details: species or system HCV strain 1B. An excerpt: HCV Replicon Cell-based Assay
An HCV replicon whole cell system was established as described by Lohmann V, Korner F, Koch J, Herian U, Theilmann L, Bartenschlager R., Science 285(5424): 110-3 (1999). This system enabled us to evaluate the effects of our HCV Protease compounds on HICV RNA replication. Briefly, using the HCV strain 1B sequence described in the Lohmann paper (Assession number: AJ238799), an HCV cDNA was generated encoding the 5′ internal ribosome entry site (IRES), the neomycin resistance gene, the EMCV (encephalomyocarditis virus)-IRES and the HCV nonstructural proteins, NS3-NS5B, and 3′ non-translated region (NTR). In vitro transcripts of the cDNA were transfected into the human hepatoma cell line, Huh7. […] Resulting cell lines were characterized for positive and negative strand RNA production and protein production over time.
Huh7 cells, constitutively expressing the HCV replicon, were grown in Dulbecco's Modified Eagle Media (DMEM) containing 10% Fetal calf serum (FCS) and 1 mg/ml G418 (Gibco-BRL). Cells were seeded the night before (1.5×10^4 cells/well) in 96-well tissue-culture sterile plates. Compound and no compound controls were prepared in DMEM containing 4% FCS, 1:100 Penicillin/Streptomysin, 1:100 L-glutamine and 5% DMSO in the dilution plate (0.5% DMSO final concentration in the assay). Compound/DMSO mixes were added to the cells and incubated for 4 days at 37° C. After 4 days, plates were rinsed thoroughly with Phosphate-Buffered Saline (PBS) (3 times 150 μl). The cells were lysed with 25 μl of a lysis assay reagent containing the FRET peptide (RET S1, as described for the in vitro enzyme assay). The lysis assay reagent was made from 5× cell Luciferase cell culture lysis reagent(Promega #E153A) diluted to 1× with distilled water, NaCl added to 150 mM final, the FRET peptide diluted to 10 μM final from a 2 mM stock in 100% DMSO. The plate was then placed into the Cytofluor 4000 instrument which had been set to 340 nm excitation/490 emission, automatic mode for 21 cycles and the plate read in a kinetic mode. EC50 determinations were carried out as described for the IC50 determinations.

T1 sequence (P27958 1027-1657 C1454S): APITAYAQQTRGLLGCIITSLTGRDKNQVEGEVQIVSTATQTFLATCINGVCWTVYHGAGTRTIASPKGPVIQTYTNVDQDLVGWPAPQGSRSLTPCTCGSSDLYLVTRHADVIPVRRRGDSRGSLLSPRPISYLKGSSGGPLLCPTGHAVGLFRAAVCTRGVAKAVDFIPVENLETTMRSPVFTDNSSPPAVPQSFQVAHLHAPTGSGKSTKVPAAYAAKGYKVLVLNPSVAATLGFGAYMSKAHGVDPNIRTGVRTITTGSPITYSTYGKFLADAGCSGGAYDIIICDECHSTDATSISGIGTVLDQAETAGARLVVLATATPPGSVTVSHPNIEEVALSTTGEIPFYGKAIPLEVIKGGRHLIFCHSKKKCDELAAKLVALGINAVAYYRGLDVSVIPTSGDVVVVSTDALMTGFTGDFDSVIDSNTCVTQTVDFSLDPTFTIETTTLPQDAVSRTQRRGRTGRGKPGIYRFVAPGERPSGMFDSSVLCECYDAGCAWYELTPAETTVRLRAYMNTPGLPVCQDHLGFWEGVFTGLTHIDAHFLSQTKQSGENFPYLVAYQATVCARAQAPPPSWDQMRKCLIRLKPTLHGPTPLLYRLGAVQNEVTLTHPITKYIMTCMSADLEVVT
T1 sequence (P27958 1658-1711 partner, looked up, stated change not applied): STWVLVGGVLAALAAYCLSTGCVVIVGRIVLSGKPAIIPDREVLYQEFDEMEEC

As to `C=CC1C[C@]1(NC(=O)[C@@H]1C[C@@H](Oc2cc(-c3ccccc3)nc3cc(OC)ccc23)CN1C(=O)[C@@H](NC(=O)OC(C)(C)C)C(C)(C)C)C(=O)NS(=O)(=O)c1ccc(C)cn1` (stereo in doubt) [Compound 10, (1-{4-(7-Methoxy-2-phenyl-quinolin-4-yloxy)-2-[1-(5-methyl-pyridine-2-sulfonylaminocarbonyl)-2-vinylcyclopropylcarbamoyl]pyrrolidine-1-carbonyl}-2,2-dimethylpropyl)carbamic acid tert-butyl ester], the pIC50 – broadly, the IC50 on a negative log10 scale, so that one unit is a factor of ten – in experiment [1] is greater than 7.00. Also, the pEC50 (in general, the EC50 on a negative log10 scale, so that one unit is a factor of ten) in experiment [2] is 6.00 to 7.00.
Taken in the same sequence, the figures for `C=CC1C[C@]1(NC(=O)[C@@H]1C[C@@H](Oc2cc(-c3ccccc3)nc3cc(OC)ccc23)CN1C(=O)[C@@H](NC(=O)OC(C)(C)C)C(C)(C)C)C(=O)NS(=O)(=O)c1nc2ccc(OCC)cc2s1` (stereo in doubt) [Compound 15, {1-[2-[1-(6-Ethoxybenzothiazole-2-sulfonylaminocarbonyl)-2-vinyl-cyclopropylcarbamoyl]-4-(7-methoxy-2-phenyl-quinolin-4-yloxy)-pyrrolidine-1-carbonyl]-2,2-dimethylpropyl}-carbamic acid tert-butyl ester] were 6.00 to 7.00 and 5.00 to 6.00.
The like results for `C=CC1C[C@]1(NC(=O)[C@@H]1C[C@@H](Oc2cc(-c3ccccc3)nc3cc(OC)ccc23)CN1C(=O)[C@@H](NC(=O)OC(C)(C)C)C(C)(C)C)C(=O)NS(=O)(=O)c1nnc(NC(C)=O)s1` (stereo in doubt) [Compound 12, {1-[2-[1-(5-Acetylamino-[1,3,4]thiadiazole-2-sulfonylaminocarbonyl)-2-vinylcyclopropylcarbamoyl]-4-(7-methoxy-2-phenyl-quinolin-4-yloxy)-pyrrolidine-1-carbonyl]-2,2-dimethylpropyl}carbamic acid tert-butyl ester] were, in that order, 6.00 to 7.00 and 5.00 to 6.00.
Taken in the same sequence, the figures for `C=CC1C[C@]1(NC(=O)[C@@H]1C[C@@H](Oc2cc(-c3ccccc3)nc3cc(OC)ccc23)CN1C(=O)[C@@H](NC(=O)OC(C)(C)C)C(C)(C)C)C(=O)NS(=O)(=O)c1cc(Cl)c(Br)s1` (some centres unmarked) [Compound 6, {-[2-{1-[5-Bromo-4-chlorothiophene-2-sulfonylamino-carbonyl]-2-vinylcyclopropylcarbamoyl}-4-(7-methoxy-2-phenyl-quinolin-4-yloxy)pyrrolidine-1-carbonyl]-2,2-dimethylpropyl}carbarmic acid tert-butyl ester] were greater than 7.00 and 6.00 to 7.00.
